Reference: article PMC8022203 (ACS infectious diseases, 2021)

Molecular target: HadA (Mycobacterium tuberculosis, UniProt P9WFK1)
Format: binding

Chain of HadA (P9WFK1 whole entry): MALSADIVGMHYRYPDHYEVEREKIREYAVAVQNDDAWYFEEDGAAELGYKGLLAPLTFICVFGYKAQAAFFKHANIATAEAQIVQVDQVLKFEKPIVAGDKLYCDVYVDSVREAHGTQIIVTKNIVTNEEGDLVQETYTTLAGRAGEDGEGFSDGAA

Compound: CCN(CC)c1ccc2cc(-c3ccc(/C=N/NC(N)=S)s3)c(=O)oc2c1 [Coum-TAC, (E)-((5-(7-((N,N)-diethylamino)-2-oxo-2H-chromen-3-yl)thiophen-2-yl)methylene)hydrazine-1-carbothioamide]
- UV-vis, fluorescence and ESI mass spectrometry of re-purified HadA: EthA promotes the formation of a covalent adduct between Coum-TAC and HadA
